In patent US20230192878A1, “METHODS, THERAPIES AND USES FOR TREATING CANCER” (PFIZER INC., priority 2020, published 2023):

Experiments:
[1] = tested on: MM.1S-Luc-PD-L1; experiment: Orthotopic MM.1S-Luc-PD-L1 multiple myeloma mouse model; assay type: in vivo, NSG mice; details: bispecific 10 μg/kg IV once (day 21), anti-PD-1 5 mg/kg IP twice a week
Procedure: MM.1 S-Luc multiple myeloma cells were engineered to express PD-L1 and are referred to as MM.1S-Luc-PD-L1. MM.1S-Luc-PD-L1 cells were prepared as a single cell suspension of 5×10^6 cells for intravenous (IV) inoculation into NSG mice.
Tumor growth was monitored by luminescent imaging by intraperitoneal (IP) injection of luciferin solution in DPBS and imaged using Perkin Elmer IVIS Spectrum camera system. Animals were administered 2×10^7 expanded human T cells IV 19 days after tumor cell inoculation. Two days following T cell administration, a single dose of the BCMAxCD3 bispecific (10 μg/kg) was administered as a bolus IV injection. Anti-PD-1 antibody was administered twice a week as a bolus IP injection at 5 mg/kg for a total of 6 injections.
Tumor growth was monitored via imaging measurements collected twice weekly. Mice were imaged using the Perkin Elmer IVIS Spectrum camera system with automatic parameter determination and a maximum imaging time of 3 minutes. Living Image software was used to collect the data. Regions of Interest (ROIs) were drawn around the entire body of the mouse, excluding as much as possible of the tail. Background flux, as measured on the anesthesia manifold, is subtracted from each ROI. Tumor measurements are expressed as total flux expressed in photons/sec (p/s). Study was terminated at day 40 post tumor inoculation.

[2] = tested on: H929-luc; experiment: BCMAxCD3 bispecific mediated cell killing with human T cells, with or without GSI; assay type: cell-based; details: 60 hours, with or without 1 μM GSI
Procedure: (§1) CD3^+ T cells from PBMCs (Stem Cell Technologies) were negatively selected using EasySep Human T cell enrichment kit (Stem Cell Technologies). Multiple myeloma cells expressing luciferase (MM.1S-luc, OPM2-luc, H929-luc, Molp8-luc, RPM18226-luc) were treated with 1 μM GSI […]. After 24 hours, cells were seeded with 50,000 CD3^+ pan T cells in a clear 96-well V-bottom plate. Cells were further treated with a range of BCMAxCD3 bispecific antibody concentrations with or without 1 μM GSI. 60 hours after treatment, luciferase activity in treated cells was analyzed using NeoLite reagent kit (Perkin Elmer) and acquired on VictorX multimode plate reader (Perkin Elmer). Cell viability was calculated by dividing luciferase activity of treated cells over luciferase activity of untreated control (no BCMAxCD3 bispecific antibody added).

[3] = tested on: Molp8-luc; experiment: as above; assay type: cell-based; details: 60 hours, with or without 1 μM GSI
Procedure: as §1

[4] = tested on: Raji-luc; experiment: BCMAxCD3 bispecific mediated cell killing of lymphoma cells with human T cells, with or without GSI; assay type: cell-based; details: 60 hours, with or without 1 μM GSI, ± SD
Procedure: CD3^+ T cells from PBMCs (Stem Cell Technologies) were negatively selected using EasySep Human T cell enrichment kit (Stem Cell Technologies). 10,000 target lymphoma cells expressing luciferase (Raji-luc) were treated with 1 μM GSI. After 24 hours, cells were seeded with 50,000 CD3^+ pan T cells in a clear 96-well V-bottom plate. Cells were further treated with a range of BCMAxCD3 bispecific concentrations with or without 1 μM GSI. 60 hours after treatment, luciferase activity in treated cells was analyzed using NeoLite reagent kit (Perkin Elmer) and acquired on VictorX multimode plate reader (Perkin Elmer). Cell viability was calculated by dividing luciferase activity of treated cells over luciferase activity of untreated control (no BCMAxCD3 bispecific antibody added).

[5] = tested on: MM.1S; experiment: Soluble BCMA (sBCMA) shedding after GSI (ELISA); assay type: cell-based, Human; design: unit not given here; details: Table 6 (sBCMA in supernatant, ELISA), 24 hours
[6] = tested on: OPM2; experiment: Soluble BCMA (sBCMA) shedding after GSI (ELISA); assay type: cell-based, Human; design: unit not given here; details: Table 6 (sBCMA in supernatant, ELISA), 24 hours

Molecule: PF-06863135: heterodimeric humanized full-length bispecific antibody with one BCMA binding arm and one CD3 binding arm
- Tumor measurements expressed as total flux ([1]; day 15 post tumor cell inoculation): 1.513 × 10^7 p/s
- Tumor measurements expressed as total flux ([1]; day 18 post tumor cell inoculation): 8.343 × 10^7 p/s
- Tumor measurements expressed as total flux ([1]; day 20 post tumor cell inoculation): 1.788 × 10^8 p/s
- Tumor measurements expressed as total flux ([1]; day 25 post tumor cell inoculation): 2.2729 × 10^7 p/s
- Tumor measurements expressed as total flux ([1]; day 28 post tumor cell inoculation): 7.082 × 10^7 p/s
- Tumor measurements expressed as total flux ([1]; day 32 post tumor cell inoculation): 7.076 × 10^7 p/s
- H929 cell viability (% control) ([2]; BCMA × CD3 0.00001 nM): 80.2 ± 0.3 % control
- H929 cell viability (% control) ([2]; BCMA × CD3 0.00005 nM): 81.1 ± 0.2 % control
- H929 cell viability (% control) ([2]; BCMA × CD3 0.00026 nM): 79 ± 0.8 % control
- H929 cell viability (% control) ([2]; BCMA × CD3 0.00128 nM): 77.8 ± 3.3 % control
- H929 cell viability (% control) ([2]; BCMA × CD3 0.0064 nM): 81.2 ± 3^ % control
- H929 cell viability (% control) ([2]; BCMA × CD3 0.032 nM): 98.6 ± 1.2 % control
- H929 cell viability (% control) ([2]; BCMA × CD3 0.16 nM): 23.2 ± 7.2 % control
- H929 cell viability (% control) ([2]; BCMA × CD3 0.8 nM): 11.3 ± 1.5 % control
- H929 cell viability (% control) ([2]; BCMA × CD3 4 nM): 8.6 ± 3 % control
- Molp8 cell viability (% control) ([3]; BCMA × CD3 0.00001 nM): 64 ± 11.6 % control
- Molp8 cell viability (% control) ([3]; BCMA × CD3 0.00005 nM): 59.1 ± 4.6 % control
- Molp8 cell viability (% control) ([3]; BCMA × CD3 0.00026 nM): 58.5 ± 0.6 % control
- Molp8 cell viability (% control) ([3]; BCMA × CD3 0.00128 nM): 66.7 ± 0.3 % control
- Molp8 cell viability (% control) ([3]; BCMA × CD3 0.0064 nM): 55.2 ± 1.3 % control
- Molp8 cell viability (% control) ([3]; BCMA × CD3 0.032 nM): 66.1 ± 4.9 % control
- Molp8 cell viability (% control) ([3]; BCMA × CD3 0.16 nM): 8 ± 2 % control
- Molp8 cell viability (% control) ([3]; BCMA × CD3 0.8 nM): 6.1 ± 0.7 % control
- Molp8 cell viability (% control) ([3]; BCMA × CD3 4 nM): 5.2 ± 0.3 % control
- Raji Cell Viability (% control) ([4]; BCMAxCD3 0.00064 nM): 94 ± 3.7 % control
- Raji Cell Viability (% control) ([4]; BCMAxCD3 0.0032 nM): 107 ± 4.5 % control
- Raji Cell Viability (% control) ([4]; BCMAxCD3 0.016 nM): 105.8 ± 10.2 % control
- Raji Cell Viability (% control) ([4]; BCMAxCD3 0.08 nM): 89.3 ± 5.7 % control
- Raji Cell Viability (% control) ([4]; BCMAxCD3 0.4 nM): 88.1 ± 18.4 % control
- Raji Cell Viability (% control) ([4]; BCMAxCD3 2 nM): 71 ± 9.7 % control
- Raji Cell Viability (% control) ([4]; BCMAxCD3 10 nM): 82.1 ± 9.7 % control
- Raji Cell Viability (% control) ([4]; BCMAxCD3 50 nM): 80 ± 13.2 % control

Molecule: CCC[C@H](N[C@H]1CCc2cc(F)cc(F)c2C1)C(=O)Nc1cn(C(C)(C)CNCC(C)(C)C)cn1 [GSI, nirogacestat]
- BCMA (-PE) MFI ([5]; GSI 0.01 nM): 3794.2
- BCMA (-PE) MFI ([5]; GSI 0.1 nM): 5797.5
- BCMA (-PE) MFI ([5]; GSI 1 nM): 5143.1
- BCMA (-PE) MFI ([5]; GSI 2.5 nM): 3988.3
- BCMA (-PE) MFI ([5]; GSI 5 nM): 2453.6
- BCMA (-PE) MFI ([5]; GSI 10 nM): 1661.5
- BCMA (-PE) MFI ([5]; GSI 25 nM): 630.5
- BCMA (-PE) MFI ([5]; GSI 50 nM): 279.9
- BCMA (-PE) MFI ([5]; GSI 100 nM): 21.3
- BCMA (-PE) MFI ([5]; GSI 500 nM): 151.8
- BCMA (-PE) MFI ([5]; GSI 1000 nM): 350
- BCMA (-PE) MFI ([6]; OPM2, GSI 0.01 nM): 6043.3
- BCMA (-PE) MFI ([6]; OPM2, GSI 0.1 nM): 8872.2
- BCMA (-PE) MFI ([6]; OPM2, GSI 1 nM): 8014
- BCMA (-PE) MFI ([6]; OPM2, GSI 2.5 nM): 7726.5
- BCMA (-PE) MFI ([6]; OPM2, GSI 5 nM): 7617.3
- BCMA (-PE) MFI ([6]; OPM2, GSI 10 nM): 6488.6
- BCMA (-PE) MFI ([6]; OPM2, GSI 25 nM): 4487.9
- BCMA (-PE) MFI ([6]; OPM2, GSI 50 nM): 3055.7
- BCMA (-PE) MFI ([6]; OPM2, GSI 100 nM): 1238.6
- BCMA (-PE) MFI ([6]; OPM2, GSI 500 nM): 23.8
- BCMA (-PE) MFI ([6]; OPM2, GSI 1000 nM): 0
